Data taken from publication PMC8319832, “Fine-Tuning of Alkaline Residues on the Hydrophilic Face Provides a Non-toxic Cationic α-Helical Antimicrobial Peptide Against Antibiotic-Resistant ESKAPE Pathogens” (Frontiers in Microbiology, 2021).
≈ marks a conversion by molar mass, not a printed value. Where a SMILES comes first, the peptide text is derived from it.

Legend:
[1] = system: mouse fibroblast cells L929; test: Cytotoxicity, CCK-8; assay type: cell-based; conditions: at 40 μg ml^–1, 24 h, CCK-8, OD 450 nm, three independent experiments
Procedure: (§1) The cytotoxicity of the peptide was determined against mouse fibroblast cells L929 and human embryonic kidney cell 293T (HEK293T). Briefly, the cells were seeded at a density of 8,000 cells per well in a 96-well plate and cultured for 24 h in Dulbecco’s Modified Eagle Medium (DMEM, Gibco) supplemented with 10% fetal bovine serum (FBS, Gibco), 2 mM L-glutamine, 100 U ml^–1 penicillin, […] streptomycin (1% P/S, Invitrogen^TM), and at 37°C in a 5% of CO2 atmosphere. Then, different concentrations of the peptide (0, 10, 20, 30, and 40 μg ml^–1) were added into each well and co-incubated with the cells for 24 h. After 2 h incubation with 10 μM 2-(2-methoxy-4-nitrophenyl)-3-(4-nitrophenyl)-5-(2,4-disulfophenyl)-2H-tetrazolium (CCK-8, Yeasen, China), the cytotoxicity of the peptide was determined by measuring the optical density at 450 nm ([Wu et al., 2014]; [Li et al., 2020]).

[2] = system: human embryonic kidney cell 293T (HEK293T); test: Cytotoxicity, CCK-8; assay type: cell-based; conditions: up to 40 μg ml^–1, 24 h, CCK-8, OD 450 nm, three independent experiments
Procedure: as §1

[3] = system: K. pneumoniae ATCC 700603; test: MIC, broth dilution; assay type: cell-based, Klebsiella pneumoniae
Procedure: (§2) All experiments were repeated at least three times.
To study the influence of physiological ions on the antimicrobial activities of the peptides, The MICs of the peptides were also determined against the standard bacterial strains cultured in MHB containing various salts at their physiological concentrations (150 mM NaCl, 4.5 mM KCl, 1 mM MgCl2, 2 mM CaCl2, 6 μM NH4HCO3, and 4 μM FeCl3) ([Ma et al., 2016]).

P. aeruginosa 9042 = test: MIC, broth dilution; assay type: cell-based, Pseudomonas aeruginosa; conditions: CLSI broth dilution, MHB, 37°C, 20 h, OD630, at least three repeats; clinical isolate
Description: as §2

P. aeruginosa 9014 = test: MIC, broth dilution; assay type: cell-based, Pseudomonas aeruginosa; conditions: CLSI broth dilution, MHB, 37°C, 20 h, OD630, at least three repeats; clinical isolate, CRE, MDR
Description: as §2

E. faecium 898 = test: MIC, broth dilution; assay type: cell-based, Enterococcus faecium; conditions: CLSI broth dilution, MHB, 37°C, 20 h, OD630, at least three repeats; clinical isolate
Description: as §2

[4] = system: ESBL-producing E. coli, CRE- and MDR P. aeruginosa, CRE- and MDR A. baumannii; test: MIC, summary over resistant gram-negative strains; assay type: cell-based; conditions: summary of Table 4
Description: as §2

S. epidermidis 6943 = test: MIC, broth dilution; assay type: cell-based; conditions: CLSI broth dilution, MHB, 37°C, 20 h, OD630, at least three repeats; clinical isolate, MRSE
Description: as §2

S. epidermidis 9092 = test: MIC, broth dilution; assay type: cell-based; conditions: CLSI broth dilution, MHB, 37°C, 20 h, OD630, at least three repeats; clinical isolate, MRSE
Description: as §2

E. faecalis 901 = test: MIC, broth dilution; assay type: cell-based; conditions: CLSI broth dilution, MHB, 37°C, 20 h, OD630, at least three repeats; clinical isolate
Description: as §2

S. epidermidis 888 = test: MIC, broth dilution; assay type: cell-based; conditions: CLSI broth dilution, MHB, 37°C, 20 h, OD630, at least three repeats; clinical isolate
Description: as §2

**Q.** For `CC[C@H](C)[C@H](NC(=O)[C@H](CCCCN)NC(=O)[C@H](CCCCN)NC(=O)[C@@H](NC(=O)[C@@H](N)Cc1ccccc1)[C@@H](C)CC)C(=O)N[C@@H](C)C(=O)N[C@@H](CCCCN)C(=O)N[C@@H](CC(C)C)C(=O)N[C@@H](CC(C)C)C(=O)N[C@@H](CCCCN)C(=O)N[C@@H](CCCCN)C(=O)N[C@H](C(=O)N[C@@H](Cc1ccccc1)C(N)=O)[C@@H](C)CC` [BmKn2-7K] (H-FIKKIAKLLKKIF-NH2), which “cytotoxicity (cell viability)” value [1] is on record?
**A.** minor cytotoxicity

**Q.** What about the “cytotoxicity (cell viability)” value [2] of the same compound?
**A.** non-toxic

**Q.** And the MIC ([3]; CLSI broth dilution, MHB, 37°C, 20 h, OD630, at least three repeats, standard strain)?
**A.** 10 µg/mL (≈ 6.29 µM)

**Q.** And the MIC ([3]; MHB with 4 μM FeCl3)?
**A.** 10 µg/mL (≈ 6.29 µM)

**Q.** And the MIC ([3]; MHB with 6 μM NH4HCO3)?
**A.** 10 µg/mL (≈ 6.29 µM)

**Q.** And the MIC ([3]; MHB with 1 mM MgCl2)?
**A.** 10 µg/mL (≈ 6.29 µM)

**Q.** And the MIC ([3]; MHB with 2 mM CaCl2)?
**A.** 10 µg/mL (≈ 6.29 µM)

**Q.** And the MIC ([3]; MHB with 4.5 mM KCl)?
**A.** 10 µg/mL (≈ 6.29 µM)

**Q.** What about the MIC ([3]; MHB with 150 mM NaCl) of the same compound?
**A.** 5 µg/mL (≈ 3.15 µM)

**Q.** And the MIC ([3]; salt sensitivity test, MHB, control without addition of salt ions)?
**A.** 10 µg/mL

**Q.** And the MIC (P. aeruginosa 9042)?
**A.** 5 µg/mL (≈ 3.15 µM)

**Q.** What about the MIC (P. aeruginosa 9014) of the same compound?
**A.** 5 µg/mL (≈ 3.15 µM)

**Q.** And the MIC (E. faecium 898)?
**A.** 5 µg/mL (≈ 3.15 µM)

**Q.** What about the “MIC against ESBL E. coli, CRE/MDR P. aeruginosa, CRE/MDR A. baumannii” value [4] of the same compound?
**A.** 2.5–10 μg ml^–1

**Q.** What about the MIC (S. epidermidis 6943) of the same compound?
**A.** 2.5 µg/mL (≈ 1.57 µM)

**Q.** And the MIC (S. epidermidis 9092)?
**A.** 2.5 µg/mL (≈ 1.57 µM)

**Q.** And the MIC (E. faecalis 901)?
**A.** 10 µg/mL (≈ 6.29 µM)

**Q.** What about the MIC (S. epidermidis 888) of the same compound?
**A.** 2.5 µg/mL (≈ 1.57 µM)
